Results from ChEMBL document CHEMBL1150030, “Benzolactam growth hormone secretagogues: replacements for the 2-tetrazole moiety of L-692,429” (1994).

Species: Rattus norvegicus
Assay: In vitro effective dose for the growth hormone(GH) release in rat pituitary cells
Assay type: functional
Details: Pituitary gland cell, read-out: ED50 (the source's name)

Row | SMILES | EC50 [µM]
1 | CC(C)(N)CC(=O)N[C@@H]1CCc2ccccc2N(Cc2ccc(-c3ccccc3-c3nnnn3Cc3ccccc3)cc2)C1=O | 0.7
2 | CC(O)Cn1nnc(-c2ccccc2-c2ccc(CN3C(=O)[C@H](NC(=O)CC(C)(C)N)CCc4ccccc43)cc2)n1 (some centres not stated) | 0.05
3 | CC(C)(N)CC(=O)N[C@@H]1CCc2ccccc2N(Cc2ccc(-c3ccccc3S(=O)(=O)NC(C)(C)C)cc2)C1=O | 4
4 | Cc1ccccc1-c1ccc(CN2C(=O)[C@H](NC(=O)CC(C)(C)N)CCc3ccccc32)cc1 | 1
5 | Cn1nnnc1-c1ccccc1-c1ccc(CN2C(=O)[C@H](NC(=O)CC(C)(C)N)CCc3ccccc32)cc1 | 0.5
6 | CC(C)(N)CC(=O)N[C@@H]1CCc2ccccc2N(Cc2ccc(-c3ccccc3-c3nn[nH]n3)cc2)C1=O | 0.06
7 | CC(C)(N)CC(=O)N[C@@H]1CCc2ccccc2N(Cc2ccc(-c3ccccc3S(N)(=O)=O)cc2)C1=O | 3
8 | COC(=O)c1ccccc1-c1ccc(CN2C(=O)[C@H](NC(=O)CC(C)(C)N)CCc3ccccc32)cc1 (racemic) | 2
9 | CC(C)(N)CC(=O)N[C@@H]1CCc2ccccc2N(Cc2ccc(-c3ccccc3C(N)=O)cc2)C1=O | 0.08
10 | CC(C)(N)CC(=O)N[C@@H]1CCc2ccccc2N(Cc2ccc(-c3ccccc3-c3nnnn3CC(=O)O)cc2)C1=O | 1
11 | CC(C)(N)CC(=O)N[C@@H]1CCc2ccccc2N(Cc2ccc(-c3ccccc3C(=O)O)cc2)C1=O | 3
12 | CC(C)(N)CC(=O)N[C@@H]1CCc2ccccc2N(Cc2ccc(-c3ccccc3C#N)cc2)C1=O (racemic) | 5
13 | CC(C)(N)CC(=O)N[C@@H]1CCc2ccccc2N(Cc2ccc(-c3ccccc3S(=O)(=O)NC(=O)c3ccccc3)cc2)C1=O | 3
14 | CC(O)Cn1nnnc1-c1ccccc1-c1ccc(CN2C(=O)[C@H](NC(=O)CC(C)(C)N)CCc3ccccc32)cc1 (some centres not stated) | 0.05
15 | CC(C)(N)CC(=O)N[C@@H]1CCc2ccccc2N(Cc2ccc(-c3ccccc3-c3nnn(CC(=O)O)n3)cc2)C1=O | 0.2
16 | Cn1nnc(-c2ccccc2-c2ccc(CN3C(=O)[C@H](NC(=O)CC(C)(C)N)CCc4ccccc43)cc2)n1 | 0.3
17 | CC(C)(N)CC(=O)N[C@@H]1CCc2ccccc2N(Cc2ccc(-c3ccccc3-c3nnn(Cc4ccccc4)n3)cc2)C1=O | 1
